# Entries after “also recorded” stand apart in the source; their conditions may differ.
# Assays:
# [1] = test system: CDAHFD diet-induced NASH in C57/BL6 mice; assay: Diet-induced (CDAHFD) mouse model of non-alcoholic steatohepatitis (NASH); type: in vivo; conditions: mouse liver
# Text: This model uses a choline-deficient, L-amino acid-defined, high-fat diet (CDAHFD) consisting of 60 kcal % fat and 0.1% methionine to induce NASH.
# C57/BL6 mice (Charles River) are divided into groups as set out below, the mice are 8 weeks (>20 grs) at the initiation of the induction phase.
# • CDAHFD; Research Diets Inc., Ref. No. A06071302 • Control diet: normal diet (VRF 1, P), Special Diets Services
# In order to induce a non-alcoholic steatohepatitis (NASH), animals will be fed with choline-deficient, L-amino acid-defined, high-fat diet (CDAHFD).
# Mice were randomly assigned to a treatment group and treated according to schedule presented in the Table above until the evaluation phase.
# Steady state PK sampling—Blood will be collected in K2-EDTA tubes to generate plasma. All blood samples will be processed for plasma by centrifugation (5,000 rpm for 10 minutes at 4° C.) within 30 minutes of collection. Plasma from each blood sample will be quickly frozen in liquid nitrogen and stored in a freezer maintained at −80° C. until analysis.
# Final blood sample—Blood will be collected in tubes for serum preparation containing protease inhibitors. All blood samples will be processed by centrifugation (3,500 rpm for 15 minutes at 4° C.). Aliquots of obtained serum samples will be stored frozen at −80° C. until further analysis.
# Tissue samples: The liver is harvested and portions of the left lateral lobe are stored for RNA gene expression analysis, TG assay, sectioned for OH proline measurement, and the rest placed in 10% formalin for histopathological evaluation. Histopathological evaluation includes sections stained with Sirius red to evaluate extent of fibrosis, and sections stained with F4/80 to assess macrophage accumulation.
# A panel of 6 fibrosis genes (Col1A1, Timp1, Pai1, CTGF, TGFβ and Acta2), inflammation genes (TNFα, IL10 and CCL2) and 2 house keeping genes are used for gene expression analysis.
# [2] = test system: MIA induced hyperalgesia in the rat; assay: MIA induced hyperalgesia in the rat, in vivo chronic pain model (weight bearing); conditions: 10 mg/kg p.o. daily day 3 to day 16, vs vehicle
# Text: Intra-articular administration of Monosodium Iodoacetate (MIA) in the ipsilateral knee of Sprague Dawley rats leads to development of a robust and long-lasting hyperalgesia and allodynia associated initially with an inflammatory response.
# (§1) Naive rats distribute their body weight equally between the two hind paws. However, when the injected (left) hind knee is inflamed and/or painful, the weight is re-distributed so that less weight is put on the affected limb (decrease in weight bearing on injured limb). Weight bearing through each hind limb is measured using a rat incapacitance tester (Linton Instruments, UK).
# Osteoarthritis (OA) in rats ((Sprague Dawley, male, groups of 10) was induced via injection of MIA solution (Sigma, 12512), 25 μL of 80 mg/mL, (2 mg) into the knee joint of the left hind leg. Weight bearing was assessed on Days 3, 5, 7, 9, 12 & 16, following injection of MIA, for development of chronic pain. At Day 3 weight bearing measurements were taken and animals were ranked and randomised to treatment groups according to their MIA window in a Latin square design. […]
# Weight bearing (g) readings were taken for both right and left hind paws and the difference calculated. Data are expressed as % ratio ipsilateral/contralateral ((WB left/WB right)*100) (mean±s.e.m.)
# Calculation: Ipsilateral reading/contralateral reading x 100. […]
# [3] = test system: CFA induced hypersensitivity in rat; assay: CFA induced hypersensitivity in rat assessed using weight bearing method; type: in vivo; conditions: 10 mg/kg, 24 hours post CFA, 1, 2 and 4 hours post treatment
# Text: Intraplantar injection of Complete Freunds adjuvant (CFA) causes an inflammatory reaction which induces hypersensitivity and oedema, and mimics some aspects of clinical inflammatory pain. These effects can be investigated using equipment to measure weight bearing and plethysmometer.
# as §1, with “hind paw” for “hind knee”, “affected paw” for “affected limb”, “injured paw).” for “injured limb).”, “limb was” for “limb is”
# Rats were placed in the incapacitance tester with the hind paws on separate sensors and the average force exerted by both hind limbs was recorded over 4 seconds.
# Base line weight bearing and paw volume readings were taken and hypersensitivity was induced via injection of CFA (Baseline weight bearing and paw volume recordings were taken prior to induction of insult. Inflammatory hypersensitivity was induced by intraplantar injection of CFA (100 μL of 1 mg/mL solution) intraplantar to the rats left hind paw.
# Animals (Male, Sprague Dawley Rats (Charles River, UK), 212-260 g) were ranked and randomised to treatment groups according to the weight bearing CFA window in a Latin square design. […]
smiles,measurement,setting,value
"Cc1c[nH]c2ncnc(N3CCC(NC(=O)c4cc(N)ncc4F)CC3)c12 [Compound 1, 2-amino-5-fluoro-N-[1-(5-methyl-7H-pyrrolo[2,3-d]pyrimidin-4-yl)-4-piperidyl]pyridine-4-carboxamide]",F4/80 quantification,"[1]; day 73, 15 mg/kg/BID",significant effect
same,Sirius red fibrosis quantification,"[1]; day 73, 15 mg/kg/QD and 15 mg/kg/BID",significant effect
same,expression levels of Pai1 (fibrosis gene panel),"[1]; day 73, at least the highest doses tested (5 mg/kg/QD, 15 mg/kg/QD, 15 mg/kg/BID p.o.), vs CDAHFD diet+vehicle",significant effect
same,expression levels of TGF (fibrosis gene panel),"[1]; day 73, at least the highest doses tested, vs CDAHFD diet+vehicle",significant effect
same,reversal of hypersensitivity (weight bearing),[2],significant and marked reversal; also recorded: significant reversal when compared to vehicle at each time point
same,hypersensitivity response (weight bearing),[3],significantly inhibited

# Source: patent US11136325B2, “Pyrrolopyrimidine and pyrrolopyridine derivatives” (GALAPAGOS NV, priority 2017, dated 2021)
